Measurements taken from US20140235689A1, “FUNGICIDAL PYRAZOLES” (E I DU PONT DE NEMOURS AND COMPANY, priority 2013, published 2014).

Tests used:
Assay type in all cases: in vivo
[1] = tested on: Puccinia recondita f. sp. tritici; assay: Test E: wheat leaf rust, spray after inoculation (curative) on wheat seedlings; conditions: 200 ppm test suspension, wheat seedlings sprayed after inoculation, visual rating, relative to controls
Description: General protocol for preparing test suspensions for Tests A-D: the test compounds were first dissolved in acetone in an amount equal to 3% of the final volume and then suspended at the desired concentration (in ppm) in acetone and purified water (50/50 mix by volume) containing 250 ppm of the surfactant Trem® 014 (polyhydric alcohol esters). The resulting test suspensions were then used in Tests A-G. Each test was conducted in triplicate, and the results were averaged. Spraying a 200 ppm test suspension to the point of run-off on the test plants was the equivalent of a rate of 800 g/ha. Unless otherwise indicated, the rating values indicate a 200 ppm test suspension was used. (An asterisk “*” next to the rating value indicates a 40 ppm test suspension was used.) Wheat seedlings were inoculated with a spore suspension of Puccinia recondita f. sp. tritici (the causal agent of wheat leaf rust) and incubated in a saturated atmosphere at 20° C. for 24 h, and then moved to a growth chamber at 20° C. for 2 days. After 2 days, the test suspension was sprayed to the point of run-off on the wheat seedlings, and then the seedlings were moved back to the growth chamber at 20° C. for 4 days. Upon removal, visual disease ratings were made. […]

[2] = tested on: Blumeria graminis f. sp. tritici; assay: Test G: wheat powdery mildew, preventive spray on wheat seedlings; conditions: 200 ppm test suspension, inoculated following day with spore dust, visual rating, relative to controls
Description: General protocol for preparing test suspensions for Tests A-D: the test compounds were first dissolved in acetone in an amount equal to 3% of the final volume and then suspended at the desired concentration (in ppm) in acetone and purified water (50/50 mix by volume) containing 250 ppm of the surfactant Trem® 014 (polyhydric alcohol esters). The resulting test suspensions were then used in Tests A-G. Each test was conducted in triplicate, and the results were averaged. Spraying a 200 ppm test suspension to the point of run-off on the test plants was the equivalent of a rate of 800 g/ha. Unless otherwise indicated, the rating values indicate a 200 ppm test suspension was used. (An asterisk “*” next to the rating value indicates a 40 ppm test suspension was used.) The test suspension was sprayed to the point of run-off on wheat seedlings. The following day the seedlings were inoculated with a spore dust of Blumeria graminis f. sp. tritici (also known as Erysiphe graminis f. sp. tritici, the causal agent of wheat powdery mildew) and incubated in a growth chamber at 20° C. for 8 days, after which time visual disease ratings were made. Results for Tests A-G are given in Table A. In the Table, a rating of 100 indicates 100% disease control and a rating of 0 indicates no disease control (relative to the controls). A hyphen (-) indicates no test results.

Septoria nodorum = assay: Test C: Septoria glume blotch, preventive spray on wheat seedlings; conditions: 200 ppm test suspension, inoculated following day, visual rating, relative to controls
Description: General protocol for preparing test suspensions for Tests A-D: the test compounds were first dissolved in acetone in an amount equal to 3% of the final volume and then suspended at the desired concentration (in ppm) in acetone and purified water (50/50 mix by volume) containing 250 ppm of the surfactant Trem® 014 (polyhydric alcohol esters). The resulting test suspensions were then used in Tests A-G. Each test was conducted in triplicate, and the results were averaged. Spraying a 200 ppm test suspension to the point of run-off on the test plants was the equivalent of a rate of 800 g/ha. Unless otherwise indicated, the rating values indicate a 200 ppm test suspension was used. (An asterisk “*” next to the rating value indicates a 40 ppm test suspension was used.) The test suspension was sprayed to the point of run-off on wheat seedlings. The following day the seedlings were inoculated with a spore suspension of Septoria nodorum (the causal agent of Septoria glume blotch) and incubated in a saturated atmosphere at 24° C. for 48 h, and then moved to a growth chamber at 20° C. for 9 days, after which time visual disease ratings were made. Results for Tests A-G are given in Table A. In the Table, a rating of 100 indicates 100% disease control and a rating of 0 indicates no disease control (relative to the controls). A hyphen (-) indicates no test results.

Alternaria solani = assay: Test B: tomato early blight, preventive spray on tomato seedlings; conditions: 200 ppm test suspension, inoculated following day, visual rating, relative to controls
Description: General protocol for preparing test suspensions for Tests A-D: the test compounds were first dissolved in acetone in an amount equal to 3% of the final volume and then suspended at the desired concentration (in ppm) in acetone and purified water (50/50 mix by volume) containing 250 ppm of the surfactant Trem® 014 (polyhydric alcohol esters). The resulting test suspensions were then used in Tests A-G. Each test was conducted in triplicate, and the results were averaged. Spraying a 200 ppm test suspension to the point of run-off on the test plants was the equivalent of a rate of 800 g/ha. Unless otherwise indicated, the rating values indicate a 200 ppm test suspension was used. (An asterisk “*” next to the rating value indicates a 40 ppm test suspension was used.) The test suspension was sprayed to the point of run-off on tomato seedlings. The following day the seedlings were inoculated with a spore suspension of Alternaria solani (the causal agent of tomato early blight) and incubated in a saturated atmosphere at 27° C. for 48 h, and then moved to a growth chamber at 20° C. for 5 days, after which time visual disease ratings were made. Results for Tests A-G are given in Table A. In the Table, a rating of 100 indicates 100% disease control and a rating of 0 indicates no disease control (relative to the controls). A hyphen (-) indicates no test results.

Septoria tritici = assay: Test D: wheat leaf blotch, preventive spray on wheat seedlings; conditions: 200 ppm test suspension, inoculated following day, visual rating, relative to controls
Description: General protocol for preparing test suspensions for Tests A-D: the test compounds were first dissolved in acetone in an amount equal to 3% of the final volume and then suspended at the desired concentration (in ppm) in acetone and purified water (50/50 mix by volume) containing 250 ppm of the surfactant Trem® 014 (polyhydric alcohol esters). The resulting test suspensions were then used in Tests A-G. Each test was conducted in triplicate, and the results were averaged. Spraying a 200 ppm test suspension to the point of run-off on the test plants was the equivalent of a rate of 800 g/ha. Unless otherwise indicated, the rating values indicate a 200 ppm test suspension was used. (An asterisk “*” next to the rating value indicates a 40 ppm test suspension was used.) The test suspension was sprayed to the point of run-off on wheat seedlings. The following day the seedlings were inoculated with a spore suspension of Septoria tritici (the causal agent of wheat leaf blotch) and incubated in saturated atmosphere at 24° C. for 48 h. and then the seedlings were moved to a growth chamber at 20° C. for 19 additional days, after which time visual disease ratings were made. Results for Tests A-G are given in Table A. In the Table, a rating of 100 indicates 100% disease control and a rating of 0 indicates no disease control (relative to the controls). A hyphen (-) indicates no test results.

[3] = tested on: Puccinia recondita f. sp. tritici; assay: Test F: wheat leaf rust, preventive spray on wheat seedlings; conditions: 200 ppm test suspension, inoculated following day, visual rating, relative to controls
Description: General protocol for preparing test suspensions for Tests A-D: the test compounds were first dissolved in acetone in an amount equal to 3% of the final volume and then suspended at the desired concentration (in ppm) in acetone and purified water (50/50 mix by volume) containing 250 ppm of the surfactant Trem® 014 (polyhydric alcohol esters). The resulting test suspensions were then used in Tests A-G. Each test was conducted in triplicate, and the results were averaged. Spraying a 200 ppm test suspension to the point of run-off on the test plants was the equivalent of a rate of 800 g/ha. Unless otherwise indicated, the rating values indicate a 200 ppm test suspension was used. (An asterisk “*” next to the rating value indicates a 40 ppm test suspension was used.) The test suspension was sprayed to the point of run-off on wheat seedlings. The following day the seedlings were inoculated with a spore suspension of Puccinia recondita f. sp. tritici (the causal agent of wheat leaf rust) and incubated in a saturated atmosphere at 20° C. for 24 h, and then moved to a growth chamber at 20° C. for 6 days, after which time visual disease ratings were made. Results for Tests A-G are given in Table A. In the Table, a rating of 100 indicates 100% disease control and a rating of 0 indicates no disease control (relative to the controls). A hyphen (-) indicates no test results.

Botrytis cinerea = assay: Test A: tomato Botrytis, preventive spray on tomato seedlings; conditions: 200 ppm test suspension, inoculated following day, visual rating, relative to controls
Description: General protocol for preparing test suspensions for Tests A-D: the test compounds were first dissolved in acetone in an amount equal to 3% of the final volume and then suspended at the desired concentration (in ppm) in acetone and purified water (50/50 mix by volume) containing 250 ppm of the surfactant Trem® 014 (polyhydric alcohol esters). The resulting test suspensions were then used in Tests A-G. Each test was conducted in triplicate, and the results were averaged. Spraying a 200 ppm test suspension to the point of run-off on the test plants was the equivalent of a rate of 800 g/ha. Unless otherwise indicated, the rating values indicate a 200 ppm test suspension was used. (An asterisk “*” next to the rating value indicates a 40 ppm test suspension was used.) The test suspension was sprayed to the point of run-off on tomato seedlings. The following day the seedlings were inoculated with a spore suspension of Botrytis cinerea (the causal agent of tomato Botrytis) and incubated in saturated atmosphere at 20° C. for 48 h, and then moved to a growth chamber at 24° C. for 3 additional days, after which time visual disease ratings were made. Results for Tests A-G are given in Table A. In the Table, a rating of 100 indicates 100% disease control and a rating of 0 indicates no disease control (relative to the controls). A hyphen (-) indicates no test results.

In the case of `CNC(c1ccc(F)cc1F)c1c(-c2c(F)cccc2F)c(C)nn1C` (stereo not drawn) [Compound 2, α-(2,4-difluorophenyl)-4-(2,6-difluorophenyl)-N,1,3-trimethyl-1H-pyrazol-5-methanamine], the “Test E disease control rating (100 = 100% disease control, 0 = no disease control)” value [1] is reported as 0, the “Test G disease control rating (100 = 100% disease control, 0 = no disease control)” value [2] is reported as 82 and the “Test C disease control rating (100 = 100% disease control, 0 = no disease control)” value (Septoria nodorum) is reported as 0. The “Test B disease control rating (100 = 100% disease control, 0 = no disease control)” value (Alternaria solani) was 0, the “Test D disease control rating (100 = 100% disease control, 0 = no disease control)” value (Septoria tritici) was 99 and the “Test F disease control rating (100 = 100% disease control, 0 = no disease control)” value [3] was 0.

In the case of `Cc1nn(C)c(C(N)c2ccc(F)cc2F)c1-c1c(F)cccc1F` (stereo not drawn) [Compound 3, α-(2,4-difluorophenyl)-4-(2,6-difluorophenyl)-1,3-dimethyl-1H-pyrazol-5-methanamine], the “Test G disease control rating (100 = 100% disease control, 0 = no disease control)” value [2] is reported as 98, the “Test A disease control rating (100 = 100% disease control, 0 = no disease control)” value (Botrytis cinerea) is reported as 98 and the “Test D disease control rating (100 = 100% disease control, 0 = no disease control)” value (Septoria tritici) is reported as 100. The “Test F disease control rating (100 = 100% disease control, 0 = no disease control)” value [3] was 99.

In the case of `CSC(c1ccc(F)cc1F)c1c(-c2c(F)cccc2F)c(C)nn1C` (centres unmarked) [Compound 4, 4-(2,6-difluorophenyl)-5-[(2,4-difluorophenyl)(methylthio)methyl]-1,3-dimethyl-1H-pyrazole], the “Test E disease control rating (100 = 100% disease control, 0 = no disease control)” value [1] is reported as 9, the “Test G disease control rating (100 = 100% disease control, 0 = no disease control)” value [2] is reported as 82 and the “Test C disease control rating (100 = 100% disease control, 0 = no disease control)” value (Septoria nodorum) is reported as 0. For the same compound, the “Test B disease control rating (100 = 100% disease control, 0 = no disease control)” value (Alternaria solani) was 0, the “Test A disease control rating (100 = 100% disease control, 0 = no disease control)” value (Botrytis cinerea) was 31 and the “Test D disease control rating (100 = 100% disease control, 0 = no disease control)” value (Septoria tritici) was 99. The “Test F disease control rating (100 = 100% disease control, 0 = no disease control)” value [3] was 85.
